# Measured values taken from patent US8632989B1, “Mutant insulin degrading enzyme and methods of use” (University of Kentucky Research Foundation, priority 2011, dated 2014).
# Target: T1, IDE (Rattus norvegicus, UniProt P35559)
# T1 construct: hexahistidine (N); made in house; host or cells: Sf9 insect cells (baculovirus, pFastBac HTb)
# T1 sequence (P35559 41-1019): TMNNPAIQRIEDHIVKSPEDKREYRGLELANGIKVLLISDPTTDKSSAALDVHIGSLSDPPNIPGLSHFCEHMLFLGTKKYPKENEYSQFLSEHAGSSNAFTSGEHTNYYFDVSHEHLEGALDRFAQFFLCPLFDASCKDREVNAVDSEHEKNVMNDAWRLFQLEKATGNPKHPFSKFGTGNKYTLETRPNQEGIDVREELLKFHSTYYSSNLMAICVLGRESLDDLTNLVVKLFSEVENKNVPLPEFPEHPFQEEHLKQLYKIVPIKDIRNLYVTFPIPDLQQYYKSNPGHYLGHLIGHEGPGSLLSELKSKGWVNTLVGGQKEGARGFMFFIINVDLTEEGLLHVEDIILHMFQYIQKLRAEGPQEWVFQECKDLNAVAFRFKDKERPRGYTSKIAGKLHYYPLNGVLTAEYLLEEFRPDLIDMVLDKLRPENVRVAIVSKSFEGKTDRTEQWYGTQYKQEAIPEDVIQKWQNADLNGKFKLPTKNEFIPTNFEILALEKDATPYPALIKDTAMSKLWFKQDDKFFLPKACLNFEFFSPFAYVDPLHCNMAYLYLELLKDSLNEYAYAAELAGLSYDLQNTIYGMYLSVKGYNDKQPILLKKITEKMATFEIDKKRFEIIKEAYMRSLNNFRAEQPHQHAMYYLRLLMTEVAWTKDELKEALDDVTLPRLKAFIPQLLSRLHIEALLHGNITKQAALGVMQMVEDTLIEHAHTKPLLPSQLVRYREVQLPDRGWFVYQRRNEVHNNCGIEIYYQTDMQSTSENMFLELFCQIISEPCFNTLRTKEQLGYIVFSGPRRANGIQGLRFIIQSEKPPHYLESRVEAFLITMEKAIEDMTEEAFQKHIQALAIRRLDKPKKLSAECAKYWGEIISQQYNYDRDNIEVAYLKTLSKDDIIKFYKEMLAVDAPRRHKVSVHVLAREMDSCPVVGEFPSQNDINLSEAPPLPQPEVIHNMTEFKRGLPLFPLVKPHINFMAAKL
# Assay: γ-methylene-ATP versus ATP activation of IDE-dependent hydrolysis of Abz-[…]-EDDnp
# Type: biochemical
# Settings: 10 μM substrate, compared with ATP
# Protocol: Activity was determined in 50 mM Tris-HCl, pH 7.4 with 10 μM Abz-[…]-EDDnp (SEQ ID NO:3) as substrate and indicated concentrations of ATP or γ-methylene-ATP. Reactions contained 0.1 μg of protein.
# IDE activity was determined by measuring the increase in fluorescence that occurs when the enzyme cleaves the internally quenched fluorogenic substrate Abz-[…]-EDDnp (SEQ ID NO:3) at the R—K bond (Song et al., Journal of Biologial Chemistry 276, 1152-1155 (2001)). The reaction was followed on a SpectraMax Gemini XS fluorescence plate reader using an excitation and emission wavelengths of 318 nm and 419 nm, respectively. Initial velocities were determined using SoftMax Pro 4.0 and kinetic constants calculated using GraphPad Prism 4.0. ATPase activity was measured by following Pi release with acid-molybdate as described by Harder et al. (Harder et al., Biochemical Journal 298 (Pt 2), 395-401 (1994)).
compound,measurement,value
Nc1ncnc2c1ncn2[C@@H]1O[C@H](COP(=O)(O)OP(=O)(O)CP(=O)(O)O)[C@@H](O)[C@H]1O [γ-methylene ATP],ability to activate Abz-GGFLRKHGQ-EDDnp hydrolysis by IDE,nearly as well as ATP
